Test results: patent US7169907B2, “Derivatives, immunogens, and antibodies for detecting ecstasy-class drugs” (Roche Diagnostics Operations, Inc., priority 2002, dated 2007)

These compounds were tested on antibody MDMA-2.1.1 (assay: Cross-reactivity assay (competitive ELISA) of antibody MDMA-2.1.1). Conditions: ED50 of standard divided by ED50 of drug, times 100.
Format: binding, mice
Description: (§1) By determining the drug concentration that results in a 50% reduction in binding (ED 50) of a standard, methamphetamine, dividing by the ED50 of each other drug, and then multiplying the result by 100, the percent cross-reactivities shown in Table 2 can be calculated.
Supernatants are subjected to serial dilutions and re-tested in the ELISA screen above. The dilution providing for about a 50% reduction from the maximum OD is chosen for proceeding to cross-reactivity testing. This consists of repeating the preceding assay with the antibody at the chosen dilution and in the presence of varying concentrations of drugs. The charts shown in FIG. 5 and FIG. 6 present the results of such determinations.

For `CN[C@@H](C)Cc1ccc2c(c1)OCO2` [d-MDMA], the “% Cross-reactivity” value was 100%.

These compounds were tested on antibody NEAMP-1.3 (assay: Cross-reactivity assay (competitive ELISA) of antibody NEAMP-1.3). Conditions: ED50 of standard divided by ED50 of drug, times 100.
Format: binding, mice
Experimental: as §1
Microplates were coated with 100 μL Methamphetamine-BSA conjugate 28 and separate plates with 100 μL N-ethylamphetamine-BSA 26 (Q=BSA, 26b) at 1 μg/mL in 0.1 M carbonate buffer, pH 9.5 for 1 hour at 37° C. (humidified).
A criterion for selection was binding to the Methamphetamine-BSA conjugate 28. Table 5 presents binding data for a portion of the screening of the Meth-BSA 28 and NEAMP-BSA 26 (Q=BSA, 26b) coated plates.
Supernatants are subjected to serial dilutions and re-tested in the ELISA screen above. The dilution providing for about a 50% reduction from the maximum OD is chosen for proceeding to cross-reactivity testing. This consists of repeating the preceding assay with the antibody at the chosen dilution and in the presence of varying concentrations of drugs.

Point of comparison: `CN[C@@H](C)Cc1ccccc1` [d-MAMP, d-methamphetamine], “Percent Cross-Reactivity” value 100%. Against it:
- CN[C@@H](C)[C@H](O)c1ccccc1 [I-ephedrine] — lower, 6.7%
- CCC(Cc1ccc2c(c1)OCO2)NC (stereo not drawn) [MBDB, 3,4-methylenedioxyphenyl-N-methylbutanamine] — lower, 20%
- CCNC(C)Cc1ccc2c(c1)OCO2 (stereo not drawn) [MDEA, 3,4-methylenedioxy-N-ethylamphetamine] — higher, 507%
- CNC(C)Cc1ccc2c(c1)OCO2 (stereo not drawn) [MDMA, 3,4-methylenedioxy-N-methylamphetamine] — higher, 114%
- C[C@H]1[C@H](c2ccccc2)OCCN1C [Phendimetrazine] — lower, 0.6%
- CN[C@@H](C)[C@@H](O)c1ccccc1 [Pseudoephedrine, pseudoephedrine] — lower, 2.0%
- C[C@H](N)Cc1ccccc1 [d-AMP, d-amphetamine] — lower, 32.5%
